A short description of assay [1]: Inhibition of Hepatitis C virus NS3/4A protease using Ac-Asp-Glu-Dap (QXLTM520)-Glu-Glu-Abu-COO-Ala-Ser-Cys(5-FAMsp)-NH2 as substrate after 30 mins by fluorometric assay. On the set-up: species or system Hepacivirus hominis.
The next assay addresses Trypsin (Homo sapiens, UniProt P07477+P07478+P35030). The assay can be described thus: Inhibition of human trypsin using hilyte fuor 488-labeled casein as substrate after 30 mins by green protease fluorometric assay. It counts as protein assay.

Among the data in ChEMBL document CHEMBL1781925, “HCV-NS3/4A protease inhibitory iridoid glucosides and dimeric foliamenthoic acid derivatives from Anarrhinum orientale” (J Nat Prod, 2011) are IC50 values, retold here.

Consider `C[C@]1(O)CC[C@@H]2C(C(=O)O)=CO[C@@H](O[C@@H]3O[C@H](COC(=O)/C=C/c4ccccc4)[C@@H](O)[C@H](O)[C@H]3O)[C@@H]21`, for which the IC50 (commonly the concentration needed to halve the response being measured) in assay [1] is 100 µM; on Trypsin, above 200 µM. For `C[C@]1(O[C@@H]2O[C@H](COC(=O)/C=C/c3ccccc3)[C@@H](O)[C@H](O)[C@H]2O)CC[C@@H]2C(C(=O)O)=CO[C@@H](O[C@@H]3O[C@H](COC(=O)/C=C/c4ccccc4)[C@@H](O)[C@H](O)[C@H]3O)[C@@H]21`, in that order: 125 µM and above 200 µM. Consider `C/C(=C\CO)CC/C=C(\C)C(=O)OC/C=C(\C)CC/C=C(\C)C(=O)O`, for which the IC50 was 126 µM in assay [1] and above 200 µM on Trypsin.

Regarding `CC(=O)OC/C=C(\C)CC/C=C(\C)C(=O)OC/C=C(\C)CC/C=C(\C)C(=O)O`, in assay [1], the IC50 is above 200 µM. Take `C[C@]1(OC(=O)/C=C/c2ccccc2)CC[C@@H]2C(C(=O)O)=CO[C@@H](O[C@@H]3O[C@H](CO)[C@@H](O)[C@H](O)[C@H]3O)[C@@H]21`: the IC50 in assay [1] is 109 µM; against Trypsin, above 200 µM.
